Measurements reported in patent publication US11632953B2, “Method for controlling hematophagous or sap-feeding arthropods” (Board of Supervisors of Louisiana State University and …, priority 2016, dated 2023).
pIC50: −log10 of the molar value.

How the values were obtained:
[1] = system: honey bees (Apis mellifera); test: acute topical toxicity in adult honey bees; format: in vivo; conditions: 48 h, VU041 1 mg/bee (~10 μg/mg), bifenthrin 0.1 μg/bee
Method: Frames of late-stage honeybee (A. mellifera) pupae were taken from four colonies at The Ohio State University Honey Bee Lab in Wooster, Ohio, and maintained in a dark humid incubator at 34° C. (Darwin Chambers Co., St. Louis, Mo., model H024) until adult bees emerged. New adults were brushed from frames daily, placed in wooden screen cages (21×14×12 cm), and provided with 1:1 (w/w) sucrose in water.
Acute toxicity experiments in adult bees were performed as follows: Twenty-four hours after emergence, adult honey bees in cages were anaesthetized with carbon dioxide, divided into groups of approximately 20 bees each, and placed in plastic-coated paper cups (177 cm^3; UNIQ Paper Yogurt Cup, Frozen Dessert Supplies, Gilbert, Ariz.) covered with cotton cheesecloth. […] As a positive control, some bees were treated with 3 μl of bifenthrin (0.1 μg/μl). Negative control bees were treated with 3 μl of solvent. Applications were made using a 20 μl micropipette (Fisherbrand Finnpipette F2, Fisher Scientific, Pittsburgh, Pa.) with a disposable plastic tip. […] Toxicity to honey bees was recorded at 48 h, rather than the 24 h used for mosquitoes, to allow for the possibility of delayed toxicity due to the larger body size of the bee. Bees showing no movement 48 h after treatment were scored as dead.

hKir2.1 = hKir2.1 (Homo sapiens (Human), UniProt P63252); test: thallium (Tl+) flux assay; format: cell-based; conditions: SAR libraries; read-out: hKir2.1 IC50
AnKir1 [2] = target: T1, AnKir1 (Anopheles gambiae, UniProt A0A075M2J8); test: thallium (Tl+) flux assay; format: cell-based; conditions: SAR libraries; read-out: AnKir1 IC50
Method: The thallium flux assay is an in vitro method of measuring conductance through a potassium ion channel. Potassium channels are also permeable to thallium ions. The modulation of a K^+ channel will thus increase or decrease thallium ion flow through the channel and thus, alter the observed fluorescence of a thallium-specific indicator dye.
After 1 hr incubation at room temperature, the dye-loading solution was washed from the plates and replaced with 20 μL/well of assay buffer. The plates were transferred to a Hamamatsu Functional Drug Screening System 6000 (FDSS6000; Hamamatsu, Tokyo, Japan), where 20 μL/well of each of the test compounds in assay buffer was added and allowed to incubate with the cells for 20 min. After incubation, a baseline recording was collected at 1 Hz for 10 s (excitation 470±20 nm, emission 540±30 nm); a thallium stimulus buffer was then added (10 μL/well), and data were then collected for an additional 4 min. […] To ensure the small-molecule vehicle DMSO had no direct effect on AnKir1-dependent Tl^+ flux, the assay's tolerance to different doses of DMSO was evaluated. The robustness and reproducibility of the assay was determined by comparing Tl^+ flux through tetracycline-induced and tetracycline-free cells. The Z′ value was calculated as:
Z′=1−(3SDp+3SDn)/|meanp+meann| where SD is standard deviation, and p and n are control and uninduced flux values, respectively. To compare the effect of DMSO on AnKir1-mediated Tl^+ flux, a one-way ANOVA was performed with a Tukey's multiple comparison test. Prism software (GraphPad Software) was used to generate CRC from Tl^+ flux. Half-inhibition concentration (IC50) values were calculated from fits using a four parameter logistic equation.
Test compounds were transferred to daughter, 384-well polypropylene plates (Greiner Bio-One, Monroe, N.C.) with an Echo555 liquid handler (Labcyte, Sunnyvale, Calif.), and then diluted into assay buffer to generate a 2× stock in 0.6% DMSO (0.3% final). […] Concentration-response curves (CRCs) were generated by screening compounds at 3-fold dilution series (1 nM-30 μM).
Tl^+ flux data were analyzed using Excel (Microsoft Corp, Redmond, Wash.) with XLfit add-in (IDBS, Guildford, Surrey, UK), OriginPro (Origin Lab, Northampton, Mass.), and GraphPad Prism (GraphPad Software, San Diego, Calif., USA) software. Raw data were opened in Excel and each data point in a given trace was divided by the first data point from that trace (static ratio) followed by subtraction of data points from control traces generated with vehicle controls. The slope of the fluorescence increase beginning 5 s after Tl^+ addition and ending 15 s after Tl^+ addition was calculated.
To perform Tl+ flux assays, stably transfected T-Rex-HEK-293 cells expressing AnKir1 channels were cultured overnight in 384-well plates (20,000 cells/20 μL/well), black-walled, clear-bottomed BD Pure Coat amine-coated plates (BD, Bedford, Mass.) with a plating media containing DMEM, 10% dialyzed FBS and 1 μg/mL tetracycline. […] Following 1 hr incubation at room temperature, the dye-loading solution was washed from the plates and replaced with 20 μL/well of assay buffer.

[3] = system: isolated tick salivary gland; test: fluid secretion (salivation) in the isolated tick salivary gland, modified Ramsay assay; set-up: species or system Amblyomma americanum; conditions: for Effect on Salivation at 10 minutes (reduction) / reduction of salivary output / saliva secretion compared to control: isolated tick salivary gland
Drosophila melanogaster = test: whole plant or invertebrate; conditions: 100 μM
Method: A capillary feeding assay (CAFE) was used to quantify the volume of sucrose solution consumed over a period of time; it was performed essentially as described in W. W. Ja, G. B. Carvalho, E. M. Mak, N. N. de la Rosa, A. Y. Fang, J. C. Liong, T. Brummel, S. Benzer, Prandiology of Drosophila and the CAFE assay. Proceedings of the National Academy of Sciences of the United States of America 104, 8253-8256 (2007); published online EpubMay 15 (10.1073/pnas.0702726104). […] One adult fly was placed into a 2 mL glass vial with a screw lid that was pierced with a glass microcapillary tube having a truncated 200-0 pipette tip. The microcapillary tubes contained 5% (wt/vol) sucrose solution with a 5 μl mineral oil overlay to minimize evaporation. […] Concentrations of 100 μM dopamine and 100 μM fluphenazine were used to determine the influence of those agents on fly feeding. […] All dead flies were excluded from all time points of the study regardless of the time of death. Mean (n>25) values are shown in all figure panels, depicting total consumption.
Times spent feeding in Kir1 and GFP genetic knockdown studies were compared to control values for each day using one-way ANOVA with a Dunns multiple comparisons post-test. Statistical significance for all studies was P<0.05.

An. gambiae [4] = conditions: cited from earlier work; for Resistance Ratio (Akron compared to G3 strain): ED50 Akron/ED50 G3
An. gambiae [5] = test: topical toxicity bioassay in adult female An. gambiae; format: in vivo, Anopheles gambiae; conditions: 24 h
Method: Topical toxicity bioassays were performed on non-blood-fed adult female mosquitoes. The mosquitoes were chilled on ice for 1-3 minutes, during which 200 nL of compound (dissolved in 95% ethanol) was applied onto the abdomen of each insect with a handheld Hamilton® micro-applicator. […] […] The three resulting ED50 values were averaged. An ethanol-only treatment was included in each experiment as a negative control. Treated mosquitoes were transferred to small cages with access to 10% sucrose and held under rearing conditions for 24 h. Mortality was recorded at 24 h.

AnKir1 [6] = target: T1, AnKir1; test: whole-cell patch clamp electrophysiology; format: cell-based; conditions: whole-cell patch clamp, HEK-293T cells
Method: Patch electrodes were pulled from silanized 1.5 mm outer diameter borosilicate microhematocrit tubes using a P-1000 Flaming/Brown micropipette puller (Sutter Instrument, Novato Calif., USA). Electrode resistance ranged from 2-4 MΩ. Whole-cell currents were recorded under voltage-clamp conditions using an Axopatch 200B amplifier (Molecular Devices, Sunnyvale, Calif.). Electrical connections to the amplifier used Ag/AgCl wires and 3 M KCl/agar bridges. Electrophysiological data were collected at 5 kHz and filtered at 1 kHz. Data acquisition and analysis were performed using pClamp 9.2 software (Axon Instruments).
Transiently transfected HEK-293T cells expressing AnKir1 were voltage-clamped in the whole-cell configuration of the patch clamp technique. The extracellular bath solution contained (in mM): 135 NaCl, 5 KCl, 2 CaCl2), 1 MgCl2, 5 glucose, 10 HEPES free acid, pH 7.4, 290 mOsm/kg H2O. The pipette solution contained (in mM): 135 KCl, 2 MgCl2, 1 EGTA, 10 HEPES free acid, 2 Na2ATP (Roche, Indianapolis, Ind.), pH 7.3, 275 mOsm. Cells were voltage clamped at −75 mV, stepped to −120 mV for 200 msec, and then ramped to 120 mV at a rate of 2.4 mV/msec. Concentration-response curves (CRCs) were constructed by measuring the effects of increasing doses of inhibitors on AnKir1 currents at −120 mV. All recordings were made at room temperature (20-23° C.).

[7] = system: isolated tick salivary gland; test: ion secretion in saliva of the isolated tick salivary gland; set-up: species or system Amblyomma americanum
Aphis gossypii = test: aphid feeding on treated cotton leaves, electrophenegraph technique; format: in vivo; conditions: barium chloride at 300 micromolar
Method: FIGS. 14(A) and (B) depict measurements of aphid (Aphis gossypi) feeding on cotton leaves, as measured through the electrophenegraph technique; on control leaves and on leaves treated with the Kir inhibitor barium, respectively.
In aphids, a specific Kir channel blocker (barium chloride at 300 micromolar) was coated onto leaf tissue, and the feeding behavior of the adult aphid was analyzed through the classical electrophenegraph technique.

Aedes aegypti mosquitoes = test: mosquito blood feeding with compound exposure; format: in vivo; conditions: compound added to blood
Excerpt: Tolbutamide and glybenclamide are inhibitors of ATP-gated Kir channels.

Sequence of hKir2.1 (P63252 whole entry): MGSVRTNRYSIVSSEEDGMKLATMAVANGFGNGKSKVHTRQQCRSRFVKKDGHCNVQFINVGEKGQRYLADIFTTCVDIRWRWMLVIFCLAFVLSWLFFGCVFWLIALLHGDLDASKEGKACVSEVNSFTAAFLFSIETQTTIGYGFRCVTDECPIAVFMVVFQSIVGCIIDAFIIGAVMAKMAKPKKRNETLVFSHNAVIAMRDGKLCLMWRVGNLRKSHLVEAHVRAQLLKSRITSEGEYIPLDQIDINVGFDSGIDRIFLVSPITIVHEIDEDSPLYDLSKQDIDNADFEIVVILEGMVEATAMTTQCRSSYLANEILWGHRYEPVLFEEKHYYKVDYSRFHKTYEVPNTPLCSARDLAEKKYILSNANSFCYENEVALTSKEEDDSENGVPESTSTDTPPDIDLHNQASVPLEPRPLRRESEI
T1 sequence (A0A075M2J8 1-555): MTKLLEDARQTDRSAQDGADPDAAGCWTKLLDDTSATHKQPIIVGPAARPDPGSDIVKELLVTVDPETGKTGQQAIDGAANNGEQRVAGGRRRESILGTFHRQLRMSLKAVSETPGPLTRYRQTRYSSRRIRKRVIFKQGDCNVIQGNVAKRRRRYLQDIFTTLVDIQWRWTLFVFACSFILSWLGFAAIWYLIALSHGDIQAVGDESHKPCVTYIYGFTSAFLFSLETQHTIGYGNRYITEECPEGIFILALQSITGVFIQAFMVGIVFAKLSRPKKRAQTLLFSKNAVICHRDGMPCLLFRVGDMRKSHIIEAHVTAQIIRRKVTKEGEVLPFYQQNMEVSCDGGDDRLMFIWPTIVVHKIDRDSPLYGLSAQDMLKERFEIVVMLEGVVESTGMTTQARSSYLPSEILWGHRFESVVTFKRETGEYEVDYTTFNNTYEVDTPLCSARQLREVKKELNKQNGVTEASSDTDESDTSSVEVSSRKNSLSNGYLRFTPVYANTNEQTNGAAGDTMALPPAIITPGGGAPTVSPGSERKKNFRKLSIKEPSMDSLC

Cc1c(COC(=O)[C@@H]2[C@H](/C=C(\Cl)C(F)(F)F)C2(C)C)cccc1-c1ccccc1 (racemic) [bifenthrin, reference compound]
mortality of adult honey bees [1]: 100%

O=C1CCCc2c1ccn2CC(=O)N1CCCc2ccccc21 [Compound 4]
pIC50 (hKir2.1): < 4.52
pIC50 (AnKir1 [2]): 4.92

O=C(CN1CCCc2ccccc21)N1CCCc2ccccc21 [Compound 6]
pIC50 (AnKir1 [2]): 5.10

O=C(Cn1nc(C(F)(F)F)c2c1CCCC2)N1CCCC2CCCCC21 (stereo not shown) [Compound 9]
pIC50 (hKir2.1): < 4.52
pIC50 (AnKir1 [2]): 5.17

O=C(Cn1nc(C(F)(F)F)c2c1CCCC2)N1CCCC(c2ccccc2)C1 (stereo not shown) [Compound 12]
pIC50 (hKir2.1): < 4.52
pIC50 (AnKir1 [2]): 5.25

CC1CC(C)CN(C(=O)Cn2nc(C(F)(F)F)c3c2CCCC3)C1 (stereo not shown) [Compound 13]
pIC50 (hKir2.1): < 4.52
pIC50 (AnKir1 [2]): 5.35

O=C(Cn1nc(C(F)(F)F)c2c1CCCC2)N1CCOc2ccccc21 [Compound 14]
pIC50 (AnKir1 [2]): 5.34

CC(NC(=S)Nc1ccncc1)C(C)(C)C (stereo not shown) [DRS-1]
Effect on Salivation at 10 minutes (reduction) [3]: Reduced ~80%

CC(NC(=NC#N)Nc1cccnc1)C(C)(C)C (stereo not shown) [DRS-3]
Effect on Salivation at 10 minutes (reduction) [3]: Reduced ~100%

CC(C)(C)CNC(=C[N+](=O)[O-])Nc1ccncc1 [DRS-4]
Effect on Salivation at 10 minutes (reduction) [3]: Reduced ~83%

NCCc1ccc(O)c(O)c1 [Dopamine, reference compound]
increase in sucrose consumption vs control (Drosophila melanogaster; 1 day PE): 1.7 fold
increase in sucrose consumption vs control (Drosophila melanogaster; 2 days PE): 1.3 fold
increase in sucrose consumption vs control (Drosophila melanogaster; 3 days PE): 1.2 fold
increase in sucrose consumption vs control (Drosophila melanogaster; 4 days PE): 1.4 fold

CC1(C)C(C=C(Cl)Cl)C1C(=O)OCc1cccc(Oc2ccccc2)c1 (stereo not shown) [Permethrin]
Resistance Ratio (Akron compared to G3 strain) (An. gambiae [4]): 33 fold
ED50, Akron Strain (An. gambiae [4]; topical, Akron strain, from reference 21): 0.001 µg/mg
ED50, G3 Strain (An. gambiae [4]; topical, G3 strain, from reference 21): 3e-07 µg/mg

O=C(Cn1ncc2c1CCOC2)N1CCCc2ccccc21 [VU730]
pIC50 (hKir2.1): < 4.52
topical toxicity (An. gambiae [5]; adult females): ED50 similar to that for VU041
ED50 (95% confidence limits), G3 Strain (An. gambiae [5]; topical, G3 strain, synergists 500 ng/insect four hours prior): 2.4 (2.1-2.9) A μg/mg
pIC50 (AnKir1 [2]): 5.62
pIC50 (AnKir1 [6]): 6.14

[Ba+2].[Cl-].[Cl-] [barium chloride]
transepithelial fluid secretion ([3]; control 270 nl/5 min, preliminary): 141 nl/5 min
reduction of salivary output / saliva secretion compared to control [3]: approximately 60%
K+ and Na+ ion secretion rates in salivary droplets [7]: significantly reduced
feeding phases (egestion, salivation, ingestion) (Aphis gossypii): inability of treated aphids to salivate

CNCCC(Oc1ccc(C(F)(F)F)cc1)c1ccccc1 (stereo not shown) [fluoxetine]
reduction of salivary output / saliva secretion compared to control [3]: 98%

O=C(NCCO[N+](=O)[O-])c1cccnc1 [nicorandil]
cations (K+ and Na+) concentrations excreted from the salivary glands [7]: significant reduction

CNC(=O)Oc1ccccc1OC(C)C [propoxur]
Resistance Ratio (Akron compared to G3 strain) (An. gambiae [4]): 101 fold

CCCCNC(=O)NS(=O)(=O)c1ccc(C)cc1 [tolbutamide]
reduction of total volume of blood consumed (Aedes aegypti mosquitoes): 99%
